Measured values from ChEMBL document CHEMBL4831491, “Non-carboxylic acid inhibitors of aldose reductase based on N-substituted thiazolidinedione derivatives” (Eur J Med Chem, 2021).
Values after ≈ are worked out from the molar mass of the structure shown.

Columns and labels:
[1] = species: Rattus norvegicus; assay: Selectivity index, ratio of IC50 for ALR1 in Wistar rat kidney to IC50 for ALR2 in Wistar rat lens
[2] = Inhibition of ALR2 in Wistar rat lens assessed as reduction in NADPH consumption using D,L-glyceraldehyde and NADPH as substrate preincubated for 1 mins followed by substrate addition and measured upto 4 mins by spectrophotometric analysis; format: tissue-based
[3] = Inhibition of ALR1 in Wistar rat kidney assessed as reduction in NADPH consumption using sodium D-glucuronate and NADPH as substrate preincubated for 1 mins followed by substrate addition and measured upto 4 mins by spectrophotometric analysis; format: tissue-based
[4] = physchem; conditions: PBS buffer, pH 7.4
[5] = species: Rattus norvegicus; assay: Inhibition of ALR2 in Wistar rat lens assessed as reduction in NADPH consumption at 30 uM using D,L-glyceraldehyde and NADPH as substrate preincubated for 1 mins followed by substrate addition and measured upto 4 mins by spectrophotometric analysis; format: tissue-based; conditions: time 5.0 min
[6] = Solubility of the compound at >30 uM; format: physicochemical
[7] = species: Rattus norvegicus; assay: Inhibition of ALR2 in Wistar rat lens assessed as reduction in NADPH consumption at 10 uM using D,L-glyceraldehyde and NADPH as substrate preincubated for 1 mins followed by substrate addition and measured upto 4 mins by spectrophotometric analysis; format: tissue-based; conditions: time 5.0 min
[8] = in vitro; conditions: human, Caco-2
Description: Apparent permeability of the compound across apical side to basolateral side in human Caco-2 cells incubated for 150 mins by LC-MS/MS analysis

[9] = in vitro; conditions: human, Caco-2; remark: listed apart in the source
Description: Efflux ratio of apparent permeability in human Caco-2 cells

[10] = in vitro; conditions: human, Caco-2; remark: listed apart in the source
Description: Apparent permeability of the compound across basolateral side to apical side in human Caco-2 cells incubated for 150 mins by LC-MS/MS analysis

[11] = physchem; conditions: n-octanol/PBS buffer, pH 7.4
[12] = species: Rattus norvegicus; assay: Inhibition of ALR2 in Wistar rat lens assessed as reduction in NADPH consumption at 50 uM using D,L-glyceraldehyde and NADPH as substrate preincubated for 1 mins followed by substrate addition and measured upto 4 mins by spectrophotometric analysis; format: tissue-based; conditions: time 5.0 min
[13] = in vitro; conditions: dog, MDCK
Description: Apparent permeability of the compound across apical side to basolateral side in dog MDCK-II cells incubated for 150 mins by LC-MS/MS analysis

[14] = in vitro; conditions: dog, MDCK; remark: listed apart in the source
Description: Efflux ratio of apparent permeability in dog MDCK-II cells

[15] = in vitro; conditions: dog, MDCK; remark: listed apart in the source
Description: Apparent permeability of the compound across basolateral side to apical side in dog MDCK-II cells incubated for 150 mins by LC-MS/MS analysis

Work on CCc1ccccc1NC(=O)CN1C(=O)S/C(=C\c2ccc(O)cc2)C1=O yielded a Ratio IC50 [1] of 1.5, an IC50 ([2]; read-out: IC50) of 1.9 µM and an IC50 [3] of 2.85 µM.
For CC/C(=C(/CC)c1ccc(O)cc1)c1ccc(O)cc1 [DIETHYLSTILBESTROL], the solubility at 2 h, 200 µM [4] was 11.9 µM (≈ 3.21 µg/mL).
Compound CC(/C=C1\SC(=S)N(CC(=O)O)C1=O)=C\c1ccccc1 has an IC50 ([2]; read-out: IC50) of 0.227 µM.
For CCN(CC)C(=O)CN1C(=O)S/C(=C\c2cccs2)C1=O, the inhibition [5] was 6.22% and the solubility [6] was “Insoluble”.
In the case of C#CCOc1ccc(/C=C2\SC(=O)N(CC(=O)Nc3ccccc3)C2=O)cc1, the inhibition [7] is reported as 8.83% and the IC50 [2] is reported as “Nd(Insoluble)”.
In the case of CCc1ccc(/C=C2\SC(=O)N(CC(=O)N(CC)CC)C2=O)cc1, the inhibition [5] is reported as 5.05% and the solubility [6] is reported as “Insoluble”.
With CCN(CC)C(=O)CN1C(=O)S/C(=C\c2ccc(O)cc2)C1=O the inhibition [7] was 77.7%, the Ratio IC50 [1] was 9.4 and the solubility [6] was “Insoluble”. It also gave an IC50 ([2]; read-out: IC50) of 1.33 µM and an IC50 [3] of 12.5 µM.
With NC(=O)N1c2ccccc2C=Cc2ccccc21 [CARBAMAZEPINE] the Papp A→B at 2.5 h [8] was 26.2 ×10⁻⁶ cm/s, the efflux ratio [9] was 0.9 and the Papp B→A at 2.5 h [10] was 24.8 ×10⁻⁶ cm/s.
In the case of CCN(CC)C(=O)CN1C(=O)S/C(=C\c2cccc(Cl)c2)C1=O, the inhibition [5] is reported as 0% and the solubility [6] is reported as “Insoluble”.
CN(C)CCC=C1c2ccccc2CCc2ccccc21 [AMITRIPTYLINE] gave a logD [11] of 2.85.
In the case of O=C(CN1C(=O)S/C(=C\c2ccc(O)cc2)C1=O)Nc1ccc(F)cc1, the Ratio IC50 [1] is reported as 5.4, the IC50 ([2]; read-out: IC50) is reported as 1.47 µM and the IC50 [3] is reported as 8.06 µM.
CCN(CC)C(=O)CN1C(=O)S/C(=C/c2ccc(OC)c(OC)c2)C1=O showed an inhibition [12] of 81.8% and an IC50 ([2]; read-out: IC50) of 22.4 µM.
For COc1ccc(/C=C2\SC(=O)N(CC(=O)Nc3ccccc3)C2=O)cc1O, the inhibition [7] was 29.9% and the IC50 [2] was “Nd(Insoluble)”.
In the case of COc1cc2nc(N3CCN(C(=O)c4ccco4)CC3)nc(N)c2cc1OC [PRAZOSIN], the Papp A→B at 2.5 h [13] is reported as 6.85 ×10⁻⁶ cm/s, the efflux ratio [14] is reported as 1.9 and the Papp B→A at 2.5 h [15] is reported as 12.9 ×10⁻⁶ cm/s.
Compound O=C(CN1C(=O)S/C(=C\c2cccc(O)c2)C1=O)NCc1ccccc1 has a Ratio IC50 [1] of 8.6, an IC50 ([2]; read-out: IC50) of 3.25 µM and an IC50 [3] of 28 µM.
In the case of O=C(CN1C(=O)S/C(=C\c2ccccc2)C1=O)NC1CC1, the inhibition [7] is reported as 2.85% and the solubility [6] is reported as “Insoluble”.
For COc1ccc(/C=C2\SC(=O)N(CC(=O)NCc3ccccc3)C2=O)cc1O, the IC50 ([2]; read-out: IC50) was 10.9 µM.
In the case of CCN(CC)C(=O)CN1C(=O)S/C(=C\c2ccc(C)cc2)C1=O, the inhibition [5] is reported as 20.2% and the solubility [6] is reported as “Insoluble”.
COCCc1ccc(OCC(O)CNC(C)C)cc1 (centres undefined) [METOPROLOL] showed a logD [11] of 0.05.
In the case of CCCCNC(=O)CN1C(=O)S/C(=C\c2ccc(O)cc2)C1=O, the Ratio IC50 [1] is reported as 8.5, the solubility [6] is reported as “Insoluble” and the IC50 ([2]; read-out: IC50) is reported as 5.68 µM. For the same compound, the IC50 [3] was 48.5 µM.
In the case of CCOc1ccc(NC(=O)CN2C(=O)S/C(=C\c3ccc(OC)c(O)c3)C2=O)cc1, the inhibition [7] is reported as 25.3% and the IC50 [2] is reported as “Nd(Insoluble)”.
With O=C(CN1C(=O)S/C(=C\c2ccc(OCc3ccc(Cl)cc3Cl)cc2)C1=O)Nc1ccccc1 the inhibition [7] was 21.8% and the IC50 [2] was “Nd(Insoluble)”.
CCN(CC)C(=O)CN1C(=O)S/C(=C\c2ccc(OC)c(O)c2)C1=O gave an inhibition [12] of 31.6%.
O=C(CN1C(=O)S/C(=C\c2ccc(O)cc2)C1=O)Nc1ccccc1Cl gave a logD [11] of 3.68, a solubility at 2 h, 200 µM [4] of 5.24 µM (≈ 2.04 µg/mL) and an IC50 ([2]; read-out: IC50) of 0.95 µM. For the same compound, the IC50 [3] was 13.5 µM.
In the case of CCN(CC)C(=O)CN1C(=O)S/C(=C\c2ccc(OC)cc2)C1=O, the inhibition [5] is reported as 19.5% and the solubility [6] is reported as “Insoluble”.
For O=C(CN1C(=O)S/C(=C\c2ccccc2)C1=O)NCCc1ccccc1, the inhibition [7] was 13.2% and the solubility [6] was “Insoluble”.
In the case of O=C(CCCN1CCC(O)(c2ccc(Cl)cc2)CC1)c1ccc(F)cc1 [HALOPERIDOL], the solubility at 2 h, 200 µM [4] is reported as 73.3 µM (≈ 27.6 µg/mL).
For C=C[C@H]1C[N@@]2CC[C@H]1C[C@@H]2[C@@H](O)c1ccnc2ccc(OC)cc12 [QUINIDINE], the Papp A→B at 2.5 h [13] was 3.27 ×10⁻⁶ cm/s, the efflux ratio [14] was 6.6 and the Papp B→A at 2.5 h [15] was 21.4 ×10⁻⁶ cm/s.
With O=C(CN1C(=O)S/C(=C\c2ccc(O)cc2)C1=O)Nc1ccccc1 the Ratio IC50 [1] was 1.3, the IC50 ([2]; read-out: IC50) was 2.93 µM and the IC50 [3] was 3.91 µM.
Compound O=C(CN1C(=O)S/C(=C\c2ccc(O)cc2)C1=O)NCc1ccccc1 has an IC50 ([2]; read-out: IC50) of 19.8 µM.
For COc1ccc(NC(=O)CN2C(=O)S/C(=C\c3ccccc3)C2=O)cc1, the inhibition [7] was 29.2% and the solubility [6] was “Insoluble”.
In the case of O=C(CN1C(=O)S/C(=C\c2ccc(OCc3ccc(Cl)cc3Cl)cc2)C1=O)NCc1ccccc1, the inhibition [7] is reported as 11.9% and the IC50 [2] is reported as “Nd(Insoluble)”.
With CCN(CC)C(=O)CN1C(=O)S/C(=C\c2ccccc2)C1=O the inhibition [7] was 16.8%, the solubility [6] was “Insoluble” and the IC50 ([2]; read-out: IC50) was 23.5 µM.
With CCN(CC)C(=O)CN1C(=O)S/C(=C\c2cccc(O)c2)C1=O the inhibition [5] was 0% and the solubility [6] was “Insoluble”.
For CCN(CC)C(=O)CN1C(=O)S/C(=C\c2ccc(Cl)cc2)C1=O, the inhibition [5] was 14% and the solubility [6] was “Insoluble”.
With CCN(CC)C(=O)CN1C(=O)S/C(=C\c2ccc(O)c(OC)c2)C1=O the inhibition [12] was 48% and the IC50 ([2]; read-out: IC50) was 56 µM.
For O=c1[nH]c2ccccc2n1CCCN1CCC(n2c(=O)[nH]c3cc(Cl)ccc32)CC1 [DOMPERIDONE], the Papp A→B at 2.5 h [8] was 2.5 ×10⁻⁶ cm/s, the efflux ratio [9] was 12.2 and the Papp B→A at 2.5 h [10] was 30.8 ×10⁻⁶ cm/s.
For C#CCOc1ccc(/C=C2\SC(=O)N(CC(=O)NCc3ccccc3)C2=O)cc1, the inhibition [7] was 30.1% and the IC50 [2] was “Nd(Insoluble)”.
In the case of C[C@H]1O[C@@H](O[C@H]2[C@@H](O)C[C@H](O[C@H]3[C@@H](O)C[C@H](O[C@H]4CC[C@@]5(C)[C@H](CC[C@@H]6[C@@H]5C[C@@H](O)[C@]5(C)[C@@H](C7=CC(=O)OC7)CC[C@]65O)C4)O[C@@H]3C)O[C@@H]2C)C[C@H](O)[C@@H]1O [DIGOXIN], the Papp A→B at 2.5 h [13] is reported as 0.19 ×10⁻⁶ cm/s, the efflux ratio [14] is reported as 30.3 and the Papp B→A at 2.5 h [15] is reported as 5.66 ×10⁻⁶ cm/s.
COc1ccc(NC(=O)CN2C(=O)S/C(=C\c3ccc(O)cc3)C2=O)cc1 gave a Ratio IC50 [1] of 3.2, an IC50 ([2]; read-out: IC50) of 1.65 µM and an IC50 [3] of 5.3 µM.
With CCCCNC(=O)CN1C(=O)S/C(=C\c2ccc(OC)cc2)C1=O the Ratio IC50 [1] was 0.8, the solubility [6] was “Insoluble” and the IC50 ([2]; read-out: IC50) was 20.3 µM. For the same compound, the IC50 [3] was 17 µM.
With CCCCNC(=O)CN1C(=O)S/C(=C\c2ccc(Cl)cc2)C1=O the inhibition [7] was 6.53% and the solubility [6] was “Insoluble”.
Compound Cc1ncc2n1-c1ccc(Cl)cc1C(c1ccccc1F)=NC2 [MIDAZOLAM] has a logD [11] of 3.28.
With CCN(CC)C(=O)CN1C(=O)S/C(=C\c2cccc(OC)c2)C1=O the inhibition [5] was 15% and the solubility [6] was “Insoluble”.
